The target in data set [1] is T1, human CB1 (Homo sapiens, UniProt P21554). Description: fluorescence-based membrane potential assay (GIRK activation) in AtT20 cells. Type of data set: cell-based. Details: expressed in transfected cells; host or cells: mouse AtT20 FlpIn cells. The following applies: for hCB1 maximal response at 10 μM (footnote d) / hCB1 Emax ±SEM: AtT20-hCB1; for hCB1 maximal response at 10 μM (footnote d): highest concentration tested, curve not fitted; for hCB1 Emax ±SEM: normalised to 1 μM CP55,940; for EC50: hCB1 EC50, AtT20-hCB1, value in brackets after pEC50.
T1 sequence (P21554 whole entry): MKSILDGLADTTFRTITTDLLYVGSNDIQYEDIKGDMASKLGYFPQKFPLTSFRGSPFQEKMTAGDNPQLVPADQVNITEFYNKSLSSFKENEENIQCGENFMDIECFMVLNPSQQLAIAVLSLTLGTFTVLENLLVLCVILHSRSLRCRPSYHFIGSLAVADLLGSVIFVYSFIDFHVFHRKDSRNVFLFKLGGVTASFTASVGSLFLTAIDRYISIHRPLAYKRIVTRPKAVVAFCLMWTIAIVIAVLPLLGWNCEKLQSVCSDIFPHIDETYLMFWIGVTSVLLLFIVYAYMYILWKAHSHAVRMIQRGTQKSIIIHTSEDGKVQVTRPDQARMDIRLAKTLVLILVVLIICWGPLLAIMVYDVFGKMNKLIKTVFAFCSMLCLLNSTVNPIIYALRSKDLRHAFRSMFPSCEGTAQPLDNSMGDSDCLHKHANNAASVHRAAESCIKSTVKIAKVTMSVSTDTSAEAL

For data set [2], the target named is T2, human CB2 (Homo sapiens, UniProt P34972). Described as above. The class given is cell-based. Details: expressed in transfected cells; host or cells: mouse AtT20 FlpIn cells. The conditions noted are these: for hCB2 Emax ±SEM: normalised to 1 μM CP55,940.
T2 sequence (P34972 whole entry): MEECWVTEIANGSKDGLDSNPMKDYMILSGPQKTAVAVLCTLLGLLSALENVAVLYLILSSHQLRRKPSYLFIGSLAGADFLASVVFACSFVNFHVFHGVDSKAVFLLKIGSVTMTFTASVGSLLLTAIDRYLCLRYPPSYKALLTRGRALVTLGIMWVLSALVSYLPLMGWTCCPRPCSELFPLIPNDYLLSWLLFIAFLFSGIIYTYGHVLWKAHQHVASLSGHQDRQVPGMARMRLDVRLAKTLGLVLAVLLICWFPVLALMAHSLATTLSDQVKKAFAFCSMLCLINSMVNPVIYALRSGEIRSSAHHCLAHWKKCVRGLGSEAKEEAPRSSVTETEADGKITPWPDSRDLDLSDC
The target of data set [3] is T1, human CB1. The data set can be described thus: competitive radioligand binding assay, displacement of [3H]CP55,940, HEK cell membranes. Details: expressed in transfected cells; host or cells: HEK293 cells, P2 membrane preparation. The following applies: [3H]CP55,940 1 nM. (In general: In a radioligand displacement assay an active substance lowers the binding of a labelled ligand.)

Data set [4] deals with T2, human CB2. Described as above. Details: expressed in transfected cells; host or cells: HEK293 cells, P2 membrane preparation. The following applies: [3H]CP55,940 1 nM.
For a further data set, the system named is CB1. Details: method as in PMID 26134475. The following applies: cited from earlier work.
In another data set the test system is CB2. Details: method as in PMID 26134475. The following applies: cited from earlier work.
Setting [5] is: hCB2 EC50, AtT20-hCB2, value in brackets after pEC50.
Setting [6] is: hCB1 pKi ±SEM, mean ± SEM of 3 to 6 independent experiments.
[7] abbreviates: hCB2 Ki, value in brackets after pKi.
Where [8] appears, read: hCB1 Ki, value in brackets after pKi.
Setting [9] is: hCB2 pKi ±SEM, mean ± SEM of 3 to 6 independent experiments.

Each structure is given as a SMILES string.

The term melting point denotes the temperature of the solid-liquid transition. A word on the EC50: it is the concentration that produces a half-maximal response. The low end stands for greater potency, the high end for weaker potency. As usually defined, the Ki is the dissociation constant of the complex between target and ligand, obtained from inhibition or displacement. Higher therefore signals weaker binding. Molecule `NC(=O)[C@H](Cc1ccccc1)NC(=O)c1cn(CCCCF)c2ncccc12` [Compound 33, (S)-N-(1-amino-1-oxo-3-phenylpropan-2-yl)-1-(4-fluorobutyl)-1H-pyrrolo[2,3-b]pyridine-3-carboxamide] yielded a melting point of 153 to 154 °C. In addition, the “hCB1 maximal response at 10 μM (footnote d)” value on human CB1 [1] is “submaximal agonist activity”. Also, at human CB1 [1] (listed as APP-4F-BUT7AICA (33)), the “hCB1 maximal response at 10 μM (footnote d)” value is listed as 25 ± 14^d % CP55,940. Further, the “hCB2 Emax ±SEM” value at human CB2 [2] (AtT20-hCB2) was 99 ± 12 % CP55,940. Further, the midpoint of the response at human CB2 [2] (setting [5]), the EC50, lay at 1.17 µM. This molecule showed an inhibition constant Ki at human CB1 [3] (setting [6]) of over 10 µM. Further, the Ki on human CB2 [4] (setting [7]) was 2.4 µM.
For `COC(=O)[C@@H](NC(=O)c1cn(CCCCF)c2ccccc12)C(C)C` [Compound 34, methyl (1-(4-fluorobutyl)-1H-indole-3-carbonyl)-L-valinate], the melting point is 111 to 114 °C. At human CB1 [1], the “hCB1 Emax ±SEM” value is given as 116 ± 3 % CP55,940 and the concentration for a half-maximal effect (EC50) is 0.0769 µM. The “hCB2 Emax ±SEM” value on human CB2 [2] (AtT20-hCB2) was 102 ± 2 % CP55,940. This molecule also gave an EC50 on human CB2 [2] (setting [5]) of 0.0114 µM. On human CB2 [2] (hCB2 pEC50 ±SEM, AtT20-hCB2), this molecule showed an EC50 of 0.0112 µM. This molecule also gave an inhibitory constant (Ki) on human CB1 [3] (setting [8]) of 0.0977 µM. Also, the Ki at human CB2 [4] (setting [7]) is 0.0269 µM.
Regarding `COC(=O)[C@H](Cc1ccccc1)NC(=O)c1cn(CCCCF)c2ccccc12` [Compound 35, methyl (1-(4-fluorobutyl)-1H-indole-3-carbonyl)-L-phenylalaninate], the melting point lay within 124 to 126 °C. In addition, at human CB1 [1], the “hCB1 Emax ±SEM” value is 105 ± 2 % CP55,940 and the EC50 was 0.0366 µM. The “hCB2 Emax ±SEM” value on human CB2 [2] (AtT20-hCB2) is given as 100 ± 2 % CP55,940. This molecule also had a concentration for a half-maximal effect (EC50) on human CB2 [2] (setting [5]) of 0.0101 µM. At human CB1 [3] (setting [8]), this molecule gave a Ki of 0.27 µM. For the same molecule, at human CB2 [4] (setting [7]), the inhibition constant (Ki) was 0.0061 µM. On human CB2 [4] (setting [9]), this molecule showed an inhibition constant (Ki) of 0.00603 µM.
`COC(=O)[C@@H](NC(=O)c1cn(CCCCF)c2ncccc12)C(C)C` [Compound 38, methyl (1-(4-fluorobutyl)-1H-pyrrolo[2,3-b]pyridine-3-carbonyl)-L-valinate] yielded a melting point of 81 to 82 °C. On human CB1 [1], the “hCB1 Emax ±SEM” value is 115 ± 16 % CP55,940 and the EC50 was 1.39 µM. Further, on human CB2 [2] (AtT20-hCB2), the “hCB2 Emax ±SEM” value was 114 ± 6 % CP55,940. This molecule also had an EC50 at human CB2 [2] (setting [5]) of 0.0496 µM. Moreover, on human CB1 [3] (setting [8]), the inhibitory constant (Ki) is 0.22 µM. Further, the affinity at human CB1 [3] (setting [6]), expressed as Ki, was 0.224 µM. Moreover, the Ki on human CB2 [4] (setting [7]) is 0.061 µM. Further, at human CB2 [4] (setting [9]), affinity was put at a Ki of 0.0603 µM.
`COC(=O)[C@@H](NC(=O)c1cn(CCCCF)c2ncccc12)C(C)(C)C` [Compound 39, methyl (S)-2-(1-(4-fluorobutyl)-1H-pyrrolo[2,3-b]pyridine-3-carboxamido)-3,3-dimethylbutanoate] yielded a melting point of 56 to 58 °C. Besides, at human CB1 [1], the “hCB1 Emax ±SEM” value was 109 ± 3 % CP55,940 and the EC50 is 0.0222 µM. Besides, the “hCB2 Emax ±SEM” value on human CB2 [2] (AtT20-hCB2) is on record as 95 ± 2 % CP55,940. In addition, a half-maximal response at human CB2 [2] (setting [5]) (EC50) required 0.00388 µM. Further, the inhibitory constant (Ki) at human CB1 [3] (setting [8]) was 0.107 µM. The molecule also gave a Ki on human CB2 [4] (setting [7]) of 0.00214 µM.
As to `COC(=O)[C@H](Cc1ccccc1)NC(=O)c1cn(CCCCF)c2ncccc12` [Compound 40, methyl (1-(4-fluorobutyl)-1H-pyrrolo[2,3-b]pyridine-3-carbonyl)-L-phenylalaninate], the melting point lay within 109 to 112 °C. At human CB1 [1], the “hCB1 Emax ±SEM” value is listed as 122 ± 10 % CP55,940 and a half-maximal response (EC50) required 0.637 µM. Further, the “hCB2 Emax ±SEM” value at human CB2 [2] (AtT20-hCB2) is listed as 110 ± 6 % CP55,940. For the same molecule, on human CB2 [2] (setting [5]), a half-maximal response (EC50) required 0.0269 µM. Besides, affinity on human CB1 [3] (setting [8]) was put at a Ki of 0.88 µM. For the same molecule, the inhibition constant Ki at human CB2 [4] (setting [9]) is 0.0288 µM.
As usually defined, the Emax is the maximal effect, on the per cent scale that the assay sets. Usually pEC50 stands for the EC50 on a negative log10 scale, so that one unit is a factor of ten. Regarding `CCCCCc1cc(O)c2c(c1)OC(C)(C)[C@@H]1CCC(C)=C[C@@H]21` [THC, Δ^9-tetrahydrocannabinol], in the data set on CB1, the “Emax at CB1” value is reported as 58% and the negative logarithm of the EC50 (pEC50) at CB1 is on record as 6.76 ± 0.09. In the data set on CB2, the “effect at 30 μM at CB2” value is recorded as 32%.

Source of the values: paper PMC9558907, “Synthesis and pharmacological evaluation of newly detected synthetic cannabinoid receptor agonists AB-4CN-BUTICA, MMB-4CN-BUTINACA, MDMB-4F-BUTICA, MDMB-4F-BUTINACA and their analogs” (Frontiers in Psychiatry, 2022).
